Experimental data published in patent EP3057951B1, “METHYLENE LINKED QUINOLINYL MODULATORS OF ROR-GAMMA-T” (Janssen Pharmaceutica NV, priority 2013, dated 2015).
Several values for one entry are separate records, joined by “and”; a condition that tells them apart may be missing. Equal values may be shown once.

Key:
[1] = biological target: T1, wild type human RORγt LBD (Homo sapiens, UniProt P51449); experiment: RORγt (LBD) Reporter Assay (GAL4-luciferase, HEK293T cells); assay type: cell-based; conditions: for RORγt (LBD) Reporter Assay, % inhibition @ 6 µM: 6 µM compound concentration; for IC50: HEK293T cells, value after the comma with ∼, > or < could not be included in the average; for inhibition at 6 µM: HEK-293T, read-out: RORγt (LBD) Reporter Assay, % inhibition @ 6 µM, 6 µM compound concentration
T1 construct: expressed in transfected cells; host or cells: HEK293T
T1 sequence (P51449 258-518): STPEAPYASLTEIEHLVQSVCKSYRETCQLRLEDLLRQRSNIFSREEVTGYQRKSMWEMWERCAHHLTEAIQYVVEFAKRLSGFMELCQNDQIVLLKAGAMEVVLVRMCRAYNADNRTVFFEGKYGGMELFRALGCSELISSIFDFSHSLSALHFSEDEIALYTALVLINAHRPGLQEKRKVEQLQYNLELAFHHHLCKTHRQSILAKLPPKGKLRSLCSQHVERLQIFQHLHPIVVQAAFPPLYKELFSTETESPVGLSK

[2] = biological target: T2, wild type human RORγt ligand binding domain (RORyt LBD) (Homo sapiens, UniProt P51449); experiment: RORγt ThermoFluor assay (thermal shift, binding affinity KD)
T2 construct: His-tag (N); TurboTEV protease cleavage site (ENLYFQG) (N); made in house; host or cells: E. coli (pHIS1, modified pET vector)
T2 sequence (P51449 258-518): T1 sequence (P51449 258-518)

RORγt (LBD) Reporter Assay, % inhibition @ 6 µM ([1]; 6 µM) [%] | IC50 [1] | Kd [2] [nM] | inhibition at 6 µM [1] [%] | RORγt (LBD) Reporter Assay, % inhibition @ 6 µM [1] [%] | SMILES
100 | 1500 nM | 450 |  |  | Cc1cc(C(O)(c2ccnc(C(F)(F)F)c2)c2cncn2C)cc2c(C#N)c(Cc3ccc(-n4cccn4)cc3)c(C#N)nc12 (single isomer, unassigned) [Example 83c, 3-(4-(1H-Pyrazol-1-yl)benzyl)-6-(hydroxy(1-methyl-1H-imidazol-5-yl)(2-(trifluoromethyl)pyridin-4-yl)methyl)-8-methylquinoline-2,4-dicarbonitrile]
 | 210 nM | 180 | 103 |  | COc1nc2ccc(C(O)(c3cc(C)nc(C)c3)c3cnnn3C)cc2c(Cl)c1Cc1ccc(C(F)(F)F)cc1 (single isomer, unassigned) [Example 84b, (4-Chloro-2-methoxy-3-(4-(trifluoromethyl)benzyl)quinolin-6-yl)(2,6-dimethylpyridin-4-yl)(1-methyl-1H-1,2,3-triazol-5-yl)methanol]
100 | 6 nM | 0.003 |  |  | COc1nc2ccc(C(O)(c3cc(C)nc(C)c3)c3cnnn3C)cc2c(Cl)c1Cc1ccc(C(F)(F)F)cc1 (single isomer, unassigned) [Example 84c, (4-Chloro-2-methoxy-3-(4-(trifluoromethyl)benzyl)quinolin-6-yl)(2,6-dimethylpyridin-4-yl)(1-methyl-1H-1,2,3-triazol-5-yl)methanol]
 | 1.3 nM | 0.31 | 99 |  | COc1nc2ccc(C(O)(c3cnnn3C)C3CCOCC3)cc2c(Cl)c1Cc1ccc(C(F)(F)F)cc1 (single isomer, unassigned) [Example 85b, (4-Chloro-2-methoxy-3-(4-(trifluoromethyl)benzyl)quinolin-6-yl)(1-methyl-1H-1,2,3-triazol-5-yl)(tetrahydro-2H-pyran-4-yl)methanol]
100 | 17 nM | 2.8 |  |  | COc1nc2ccc(C(O)(c3cnnn3C)C3CCOCC3)cc2c(Cl)c1Cc1ccc(C(F)(F)F)cc1 (single isomer, unassigned) [Example 85c, (4-Chloro-2-methoxy-3-(4-(trifluoromethyl)benzyl)quinolin-6-yl)(1-methyl-1H-1,2,3-triazol-5-yl)(tetrahydro-2H-pyran-4-yl)methanol]
 | 13 nM | 0.73 | 100 |  | COc1nc2ccc(C(O)(c3ccc(C)nc3C)C3CN(C(C)=O)C3)cc2c(Cl)c1Cc1ccc(C(F)(F)F)cc1 (single isomer, unassigned) [Example 87b, 1-(3-((4-Chloro-2-methoxy-3-(4-(trifluoromethyl)benzyl)quinolin-6-yl)(2,6-dimethylpyridin-3-yl)(hydroxy)methyl)azetidin-1-yl)ethanone]
97 | 15 nM | 3 |  |  | COc1nc2ccc(C(O)(c3ccc(C)nc3C)C3CN(C(C)=O)C3)cc2c(Cl)c1Cc1ccc(C(F)(F)F)cc1 (single isomer, unassigned) [Example 87c, 1-(3-((4-Chloro-2-methoxy-3-(4-(trifluoromethyl)benzyl)quinolin-6-yl)(2,6-dimethylpyridin-3-yl)(hydroxy)methyl)azetidin-1-yl)ethanone]
 | 740 nM | 480 | 95 |  | COc1nc2ccc(C(O)(c3ccc(C)nc3C)c3cncn3C)cc2c(Cl)c1Cc1ccc(C(F)(F)F)cc1 (single isomer, unassigned) [Example 88b, (4-Chloro-2-methoxy-3-(4-(trifluoromethyl)benzyl)quinolin-6-yl)(2,6-dimethylpyridin-3-yl)(1-methyl-1H-imidazol-5-yl)methanol]
98 | 10 nM | 0.08 |  |  | COc1nc2ccc(C(O)(c3ccc(C)nc3C)c3cncn3C)cc2c(Cl)c1Cc1ccc(C(F)(F)F)cc1 (single isomer, unassigned) [Example 88c, (4-Chloro-2-methoxy-3-(4-(trifluoromethyl)benzyl)quinolin-6-yl)(2,6-dimethylpyridin-3-yl)(1-methyl-1H-imidazol-5-yl)methanol]
 | < 2 nM | 1.2 | 97 |  | COc1nc2ccc(C(O)(c3cncn3C)c3cnnn3C)cc2c(Cl)c1Cc1ccc(C(F)(F)F)cc1 (single isomer, unassigned) [Example 89b, (4-Chloro-2-methoxy-3-(4-(trifluoromethyl)benzyl)quinolin-6-yl)(1-methyl-1H-1,2,3-triazol-5-yl)(1-methyl-1H-imidazol-5-yl)methanol]
 | < 2 nM | 0.26 |  | 97 | COc1nc2ccc(C(O)(c3cncn3C)c3cnnn3C)cc2c(Cl)c1Cc1ccc(C(F)(F)F)cc1 (single isomer, unassigned) [Example 89c, (4-Chloro-2-methoxy-3-(4-(trifluoromethyl)benzyl)quinolin-6-yl)(1-methyl-1H-1,2,3-triazol-5-yl)(1-methyl-1H-imidazol-5-yl)methanol]
 | 2800 nM | 2000 | 79 |  | COc1nc2ccc(C(O)(c3sc(C)nc3C)c3cnnn3C)cc2cc1Cc1ccc(C(F)(F)F)cc1 (single isomer, unassigned) [Example 92b, (2,4-Dimethylthiazol-5-yl)(2-methoxy-3-(4-(trifluoromethyl)benzyl)quinolin-6-yl)(1-methyl-1H-1,2,3-triazol-5-yl)methanol]
96 | 30 nM | 19 |  |  | COc1nc2ccc(C(O)(c3sc(C)nc3C)c3cnnn3C)cc2cc1Cc1ccc(C(F)(F)F)cc1 (single isomer, unassigned) [Example 92c, (2,4-Dimethylthiazol-5-yl)(2-methoxy-3-(4-(trifluoromethyl)benzyl)quinolin-6-yl)(1-methyl-1H-1,2,3-triazol-5-yl)methanol]
74 | ~5000 nM | 2200 |  |  | COc1c(Cc2ccccc2)c(C(F)(F)F)nc2ccc(C(O)(c3ccccn3)c3cncn3C)cc12 (single isomer, unassigned) [Example 98b, (3-Benzyl-4-methoxy-2-(trifluoromethyl)quinolin-6-yl)(1-methyl-1H-imidazol-5-yl)(pyridin-2-yl)methanol]
96 | 420 nM | 380 |  |  | COc1c(Cc2ccccc2)c(C(F)(F)F)nc2ccc(C(O)(c3ccccn3)c3cncn3C)cc12 (single isomer, unassigned) [Example 98c, (3-Benzyl-4-methoxy-2-(trifluoromethyl)quinolin-6-yl)(1-methyl-1H-imidazol-5-yl)(pyridin-2-yl)methanol]
 | ~2000 nM | 810 | 86 |  | Cn1cncc1C(O)(c1ccc2nc(C(F)(F)F)c(Cc3ccccc3)c(C#N)c2c1)c1ccccn1 (single isomer, unassigned) [Example 99b, 3-Benzyl-6-(hydroxy(1-methyl-1H-imidazol-5-yl)(pyridin-2-yl)methyl)-2-(trifluoromethyl)quinoline-4-carbonitrile]
97 | 20 nM | 12 |  |  | Cn1cncc1C(O)(c1ccc2nc(C(F)(F)F)c(Cc3ccccc3)c(C#N)c2c1)c1ccccn1 (single isomer, unassigned) [Example 99c, 3-Benzyl-6-(hydroxy(1-methyl-1H-imidazol-5-yl)(pyridin-2-yl)methyl)-2-(trifluoromethyl)quinoline-4-carbonitrile]
94 | 670 nM | 110 |  |  | COc1c(Cc2ccccc2)c(C(F)(F)F)nc2ccc(C(O)(c3ccc(C(F)(F)F)nc3)c3cncn3C)cc12 (single isomer, unassigned) [Example 106b, (3-Benzyl-4-methoxy-2-(trifluoromethyl)quinolin-6-yl)(1-methyl-1H-imidazol-5-yl)(6-(trifluoromethyl)pyridin-3-yl)methanol]
65 | ~5000 nM | 18 |  |  | COc1c(Cc2ccccc2)c(C(F)(F)F)nc2ccc(C(O)(c3ccc(C(F)(F)F)nc3)c3cncn3C)cc12 (single isomer, unassigned) [Example 106c, (3-Benzyl-4-methoxy-2-(trifluoromethyl)quinolin-6-yl)(1-methyl-1H-imidazol-5-yl)(6-(trifluoromethyl)pyridin-3-yl)methanol]
55 | 1100 nM | 1.2 |  |  | Cn1cncc1C(O)(c1ccc(C(F)(F)F)nc1)c1ccc2nc(C(F)(F)F)c(Cc3ccccc3)c(C#N)c2c1 (single isomer, unassigned) [Example 108b, 3-Benzyl-6-(hydroxy(1-methyl-1H-imidazol-5-yl)(6-(trifluoromethyl)pyridin-3-yl)methyl)-2-(trifluoromethyl)quinoline-4-carbonitrile]
83 | 960 nM and ~1000 nM | 46 |  |  | Cn1cncc1C(O)(c1ccc(C(F)(F)F)nc1)c1ccc2nc(C(F)(F)F)c(Cc3ccccc3)c(C#N)c2c1 (single isomer, unassigned) [Example 108c, 3-Benzyl-6-(hydroxy(1-methyl-1H-imidazol-5-yl)(6-(trifluoromethyl)pyridin-3-yl)methyl)-2-(trifluoromethyl)quinoline-4-carbonitrile]
